Values quoted from earlier work, collected in patent publication US6503745B1, “Cyclopentane and cyclopentene compounds and use for detecting influenza virus” (priority 1998, dated 2003).
Where two headings read alike, the source gives them in different places.

Columns and labels:
influenza [1] = settings: in animals
influenza [2] = settings: in human volunteers

Row | SMILES | binder of influenza neuraminidase (influenza neuraminidase) | in vivo antiviral activity (influenza [1]) | in vivo antiviral activity (influenza [2])
1 | CC(=O)NC1C(NC(=N)N)C=C(C(=O)O)OC1[C@H](O)[C@H](O)CO (stereo partly shown) [GG167, 2,3-didehydro-2,4-dideoxy-4-guanidinyl-N-acetylneuraminic acid] | potent binder | potent in vivo antiviral activity | potent in vivo antiviral activity
2 | CCC(CC)O[C@@H]1C=C(C(=O)O)C[C@H](N)[C@H]1NC(C)=O [GS 4071, (3R,4R,5S)-4-acetamido-5-amino-3-(1-ethylpropoxy)-1-cyclohexene-1-carboxylic acid] | potent binders |  | 
